In PubChem BioAssay (NCI):
Converted amounts (≈) assume the structure as drawn. “And” between values parts separate entries of the source, which are not always exact repeats. Equal entries are not always repeated.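 These data come from cells grown in 96-well plates and exposed to compound for 48 hours at five concentrations. The concentration for 50% growth inhibition is given as GI50. Definition used: TGI = concentration required for complete inhibition of growth.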

What was measured:
Experiment in all cases: inhibition of tumour cell growth, NCI panel, 48 h
786-0 renal = tested on: 786-0 renal
CAKI-1 renal = tested on: CAKI-1 renal
HT29 colon = tested on: HT29 colon
MOLT-4 leukemia = tested on: MOLT-4 leukemia
OVCAR-4 ovarian = tested on: OVCAR-4 ovarian
SF-295 CNS = tested on: SF-295 CNS
SNB-75 CNS = tested on: SNB-75 CNS
SR leukemia = tested on: SR leukemia
MCF7 breast = tested on: MCF7 breast
MDA-MB-231 breast = tested on: MDA-MB-231 breast

Compound | TGI (786-0 renal) | TGI (CAKI-1 renal) [µM] | TGI (HT29 colon) [µM] | TGI (MOLT-4 leukemia) [µM] | TGI (OVCAR-4 ovarian) [µM] | TGI (SF-295 CNS) | TGI (SNB-75 CNS) [µM] | TGI (SR leukemia) | TGI (MCF7 breast) [µM] | TGI (MDA-MB-231 breast) [µM] | GI50 (786-0 renal) | GI50 (CAKI-1 renal) | GI50 (HT29 colon) | GI50 (MDA-MB-231 breast) [µM] | GI50 (MOLT-4 leukemia) | GI50 (OVCAR-4 ovarian) [µM] | GI50 (SF-295 CNS) | GI50 (SNB-75 CNS) | GI50 (MCF7 breast) | GI50 (SR leukemia) [µg/mL]
CCCCN(CCCC)C(=O)C(=O)CC(=O)/C=C/c1ccccc1 | > 100 µM | > 100 | > 100 | > 100 | > 100 | > 100 µM | > 100 | > 100 µM |  |  |  |  |  |  |  |  |  |  |  | 
Cc1ccc([N+](=O)[O-])cc1NC(=O)C(=O)C1CCC2=C(Sc3ccccc3N2)C1=O (configuration not stated) | > 100 µM | > 100 | > 100 | > 100 | > 100 | > 100 µM | > 100 |  | > 100 | > 100 |  |  |  |  |  |  |  |  |  | 
CC(=O)OCC(OC(C)=O)C(OC(C)=O)C(OC(C)=O)C(=O)CNn1c(-c2ccccc2Cl)nc2ccc(Br)cc2c1=O (configuration not stated) | > 100 µM | > 100 | > 100 | > 100 | > 100 | > 100 µM | > 100 | > 100 µM |  |  |  |  |  |  |  |  |  |  |  | 
C=C(C)[C@@H]1CC[C@]2(C)[C@H](CC=C3[C@@H]4[C@H](C)[C@@H](C)CC[C@]4(CO)CC[C@]32C)[C@@]1(C)CCCN | 1.58 µM | 5.58 | 2.04 | 4.07 | 2.85 | 1.58 µM | 3.62 |  |  | 1.71 | 0.841 µM | 1.69 µM | 0.99 µM | 0.957 | 1.35 µM | 0.86 | 0.847 µM | 0.848 µM |  | 
CN(C)CCNc1c2c(c(NCCN(C)C)c3c(CO)c[nH]c13)C(=O)c1ccccc1C2=O | 16.2 µM | 19.2 | > 23.2 |  | 11.5 | 17.8 µM | 22.6 |  | > 34.1 | 10.7 | 3.38 µM | 4.64 µM | 1.4 µM | 2.29 | 0.371 µM | 2.58 | 3.39 µM | 6.38 µM | 1.97 µM | 
C/C=C/C(=O)[O-].N.N.N.N.N.[Co+3].[O-][Cl+3]([O-])([O-])[O-] | > 100 µM |  | > 100 | > 100 | > 100 | > 100 µM | > 100 |  |  |  | > 100 µM |  | > 100 µM |  | > 100 µM | > 100 | > 100 µM | 84.7 µM |  | 
COC(=O)C12C3C4C1C1C2C3C41C(=O)N(C(C)C)C(C)C (configuration not stated) | > 100 µM |  | > 100 | > 100 | > 100 | > 100 µM | > 100 | > 100 µM |  |  |  |  |  |  |  |  |  |  |  | 
O=C(O)Cc1cc(=O)[nH]c2c1C(=O)CCC2 | > 100 µM |  | > 100 | > 100 |  | > 100 µM |  | > 100 µM |  |  |  |  |  |  |  |  |  |  |  | 
CN/N=C(\C(=O)Nc1ccc([N+](=O)[O-])cc1[N+](=O)[O-])C1NC(=O)NC1=O (configuration not stated) | > 100 µM | > 100 | > 100 | > 100 | > 100 | > 100 µM | > 100 | > 100 µM |  |  |  |  |  |  |  |  |  |  |  | 
S=C(Nc1ccccc1)N1CCn2c1nsc2=Nc1ccccc1 | > 100 µM | > 100 | > 100 | > 100 | > 100 | > 100 µM | > 100 |  | > 100 | > 100 | 53.3 µM | > 100 µM | > 100 µM | 34.8 | 56.5 µM | > 100 | 40.4 µM | 66.5 µM | > 100 µM | 
COc1cc(/C=C\c2cc(OC)c(OC)c(OC)c2)cc(NS(=O)(=O)c2cccc(Cl)c2)c1OC | > 100 µM | 27.8 | > 100 | > 100 | > 100 | > 100 µM | > 100 |  | > 100 | > 100 | 0.0601 µM | 0.0527 µM | 0.0441 µM | 0.259 | 0.0456 µM | 0.248 | 0.0453 µM | 0.0298 µM | 0.0533 µM | 
Cc1ccc(SCC(O)=C2C(=O)CCCC2=O)cc1 | > 100 µM | > 100 | > 100 | > 100 | > 100 | > 100 µM | > 100 | > 100 µM |  |  |  |  |  |  |  |  |  |  |  | 
C(#Cc1ccccc1C#Cc1ccccn1)c1ccccn1 | > 100 µM | 42.5 | > 100 | 20.1 | > 100 | 33.3 µM | 42.6 |  | 38.2 | 36.6 | 18.3 µM | 18.3 µM | 30.3 µM | 16.6 | 3.44 µM | 38 | 16.8 µM | 18.5 µM | 14.3 µM | 
CCC1OC(/C(C)=C/C(C)/C=C/C2C(C)C2/C=C/C2OC(CC(=O)O)CC(O)C2O)CC=C1C (configuration not stated) | > 50 µM | > 50 | > 50 | > 50 | > 50 | > 50 µM | > 50 |  | > 50 |  | > 50 µM | > 50 µM | > 50 µM |  | > 50 µM | > 50 | > 50 µM | > 50 µM | > 50 µM | 
O=C(O)c1oc2cccc3c2c1CCC3 | > 100 µM |  | > 100 | > 100 | > 100 | > 100 µM | > 100 | > 100 µM |  |  |  |  |  |  |  |  |  |  |  | 
C[C@H]1CCC/C=C/[C@@H]2C[C@H](O)C[C@H]2[C@H](O)[C@@H](SC2OC(CO)C(O)C(O)C2O)CC(=O)O1 (some centres not stated) | 59.9 µM | > 100 | 58.8 | > 100 | > 100 | > 100 µM | > 100 |  | > 100 | 91 | 25.1 µM | > 100 µM | 23 µM | 26.9 | > 100 µM | 54.1 | > 100 µM | 53.2 µM | 35.1 µM | 
Cc1c(N)nc(C(CC(N)=O)NCC(N)C(N)=O)nc1C(=O)NC(C(=O)NC(C)C(O)C(C)C(=O)NC(C(=O)NCCc1nc(-c2nc(C(=O)NCCCNCCCCN)cs2)cs1)C(C)O)C(OC1OC(CO)C(O)C(O)C1OC1OC(CO)C(O)C(OC(N)=O)C1O)c1cnc[nH]1 (configuration not stated) | 19.4 µg/mL and > 10 µM | 2.38 | > 10 |  | > 10 | 12 µg/mL and 4.04 µM |  | 0.287 µg/mL |  |  | 0.895 µg/mL and 0.562 µg/mL | 0.845 µg/mL and 2.94 µg/mL | 50.8 µg/mL |  | 4.22 µg/mL and 2.23 µg/mL |  | 0.603 µg/mL and 0.261 µg/mL | 8.83 µg/mL and 3.08 µg/mL | 3.08 µg/mL | 0.0139 (≈ 9.62 nM)
